Patent publication US20260297542A1, “HERBICIDE RESISTANT PLANTS” (SYNGENTA CROP PROTECTION AG, priority 2023, published 2026)
Numbering of substitutions follows the chain as printed.

Assays:
[1] = biological target: T1, AtPPO1 Y426M T461Q L479M (SEQ ID NO.132) (Arabidopsis thaliana, UniProt P55826, L479M/T461Q/Y426M); assay: fluorescent Protoporphyrinogen Oxidase assay, crude extract; type: biochemical; conditions: read-out: percentage inhibition
T1 construct: made in house; host or cells: E. coli BL21 (DE3) hemG, crude extract
T1 sequence (P55826 35-537 Y426M/T461Q/L479M): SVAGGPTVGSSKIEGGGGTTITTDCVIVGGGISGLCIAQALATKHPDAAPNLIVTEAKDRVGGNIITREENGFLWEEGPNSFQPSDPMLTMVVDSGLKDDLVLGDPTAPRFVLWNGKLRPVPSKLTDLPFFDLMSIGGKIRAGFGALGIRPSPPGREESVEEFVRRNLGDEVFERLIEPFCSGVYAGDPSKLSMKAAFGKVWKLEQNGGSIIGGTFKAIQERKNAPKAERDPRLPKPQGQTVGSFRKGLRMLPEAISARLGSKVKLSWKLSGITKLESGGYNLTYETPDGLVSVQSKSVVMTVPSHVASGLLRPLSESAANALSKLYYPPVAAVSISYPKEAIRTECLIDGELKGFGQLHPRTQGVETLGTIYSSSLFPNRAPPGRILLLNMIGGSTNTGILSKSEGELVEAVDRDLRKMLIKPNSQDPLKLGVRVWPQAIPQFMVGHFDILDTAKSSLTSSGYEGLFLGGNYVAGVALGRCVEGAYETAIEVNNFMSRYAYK
Protocol: (§1) A pET24 plasmid containing a DNA sequence encoding each identified variant mutant of AtPPO1 derived from Arabidopsis thaliana, codon-optimised for expression in E. coli, and under control of a T7 promoter, was synthesised by Twist Bioscience. This plasmid was expressed in E. coli BL21 (DE3) hemG with 50 μg/mL kanamycin and 25 μg/mL chloramphenicol selection. Overnight cultures grown at 37° C. were used to inoculate 150 ml AIM (AIM-Terrific Broth Base including Trace elements, Formedium) in 500 ml shake flasks at a ratio of 1:100. Cultures were grown at 37° C., 200 rpm for 3 hours and then overnight at 26° C. Cells were harvested by 4° C. centrifugation for 20 minutes at 600 rpm. Cells were stored at −80° C. until extraction. 0.5-1 g of cell pellet from was thawed and resuspended in ratio of 1:1 in lysis buffer (20 mM Tris pH8, 500 mM sodium chloride, 10% glycerol, 1× complete Protease EDTA-free Inhibitor Tablet (Roche)). The resuspension was sonicated at 50% using 10-20 cycles of 10 seconds, 20 seconds off. After sonication Triton X-100 was added to the lysates at a final concentration of 0.5%. The lysates were centrifuged at 13.00 rpm for 10 min at 4° C. The crude extracts (i.e, supernatants) were stored at −80° C. Protein concentration was measured and calculated using the absorbance at 280 nm. Extracts were diluted 1 in 4 and 10 uL was analysed by SDS PAGE.
(§2) Variant crude extracts were assayed in a fluorescent Protoporphyrinogen Oxidase assay in black 384 well plates with a clear bottom. The total volume of the reaction mixture was 100 ul and contained 100 mM K2HPO4 pH7.2, 1 mM Na2EDTA, 5 mM DTT, 20% glycerol (v/v), 0.025% Tween 20 (v/v). Reactions were started with addition of 1 uM protoporphyrinogen IX final assay concentration. Fluorescence was monitored over 30 min using a Tecan plate reader with an excitation wavelength of 405 nm, emission wavelength of 635 nm, gain of 90 and 15 flashes. 10 ul of 3-fold serial dilution of crude extract in 100 mM K2HPO4 pH7.2, 1 mM Na2EDTA, 5 mM DTT, 20% glycerol (v/v), 0.05% Tween 20 (v/v) was tested in the assay against 1% DMSO and 100 ppm herbicide B to determine the correct amount of crude extract to add to the assay to observe activity. 10 ul of the appropriate crude extract dilution was then tested in the fluorescent Protoporphyrinogen Oxidase assay against DMSO and 10-fold dose response of each compound (herbicides A to E) with a top rate of 100 ppm.
(§3) The percentage inhibition was calculated as the activity in the presence of one of four concentrations of each herbicide compound A to E (note that the compounds labelled as A to E are identified hereinabove in the relevant section of the description) as a percentage of the enzyme activity in DMSO (Table 5).

[2] = biological target: T2, AtPPO1 V365L Y426V L479N (SEQ ID NO.126) (Arabidopsis thaliana, UniProt P55826, L479N/V365L/Y426V); assay: as above; type: biochemical; conditions: read-out: percentage inhibition
T2 construct: made in house; host or cells: E. coli BL21 (DE3) hemG, crude extract
T2 sequence (P55826 35-537 V365L/Y426V/L479N): T1 sequence (P55826 35-537 Y426M/T461Q/L479M) with V331L, M392V, Q427T, M445N
Protocol: as §1, §2, §3

| SMILES | inhibition at 0.1 ppm [1] [%] | inhibition at 1 ppm [1] [%] | inhibition at 10 ppm [1] [%] | inhibition at 100 ppm [1] [%] | inhibition at 0.1 ppm [2] [%] | inhibition at 1 ppm [2] [%] | inhibition at 10 ppm [2] [%] | inhibition at 100 ppm [2] [%] |
| --- | --- | --- | --- | --- | --- | --- | --- | --- |
| CC(C)N(C)S(=O)(=O)NC(=O)c1cc(-n2c(=O)cc(C(F)(F)F)n(C)c2=O)c(F)cc1Cl [Herbicide E, saflufenacil] | 0 | 26 | 70 | 100 | 0 | 22 | 77 | 94 |
| C#CCN1C(=O)C(F)(F)Oc2cc(F)c(-n3c(=O)n(C)c(=S)n(C)c3=O)cc21 [Herbicide B, trifludimoxazin] | 100 | 100 | 100 | 100 | 98 | 100 | 100 | 100 |
| CCOC(=O)[C@]1(C)CC(c2cc(-n3c(=O)n(C)c(=S)n(C)c3=O)c(F)cc2Cl)=NO1 [Herbicide D, ethyl (5S)-3-[2-chloro-5-(3,5-dimethyl-2,6-dioxo-4-thioxo-1,3,5-triazinan-1-yl)-4-fluoro-phenyl]-5-methyl-4H-isoxazole-5-carboxylate] | 58 | 79 | 95 | 100 | 12 | 33 | 89 | 98 |
| CCOC(=O)C1(C)CC(c2cc(-n3c(=O)cc(C(F)(F)F)n(C)c3=O)c(F)cc2Cl)=NO1 (stereo not shown) [Herbicide C, 3-(2-chloro-4-fluoro-5-(3-methyl-2,6-dioxo-4-trifluoromethyl-3,6-dihydropyrimidin-1(2H)-yl)phenyl)-5-methyl-4,5-dihydroisoxazole-5-carboxylic acid ethyl ester] | 26 | 54 | 75 | 100 | 4 | 44 | 82 | 93 |
| CCOC(=O)COc1ncccc1Oc1cc(-n2c(=O)cc(C(F)(F)F)n(C)c2=O)c(F)cc1Cl [Herbicide A, epyrifenacil] | 10 | 51 | 77 | 100 | 0 | 36 | 73 | 90 |
